According to US20100099122A1 (priority 2008, published 2010):
Entries after “also recorded” stand apart in the source; their conditions may differ. Read-outs that look alike come from different tables or passages of the source.

Legend:
H. capsulatum Ggt1 = H. capsulatum Ggt1 (Histoplasma ohiense, UniProt A0ACF1AEB1); format: biochemical
[1] = test system: H. capsulatum Ggt1 (GSH-FeR); format: biochemical, Histoplasma capsulatum; settings: inhibitor 0.1 mM, 15 min pretreatment, then removed by diafiltration, GSH-FeR activity
[2] = test system: H. capsulatum Ggt1 (GSH-FeR); settings: cited from earlier work

Row | Compound | Glu transfer catalyzed by γ-Glutamyltransferase (Ggt1), effect of inhibitor (H. capsulatum Ggt1) | Fe^3+ reduction catalyzed by γ-Glutamyltransferase (Ggt1), effect of inhibitor [1] | also measured
1 | [Al] [Aluminum, aluminum] | no inhibitory action; also recorded: No effect | strong inhibitory effect; also recorded: Inhibition | inhibition of GSH-FeR activity [2]: reversibly inhibited
2 | N[C@H](C(=O)O)[C@@H]1CC(Cl)=NO1 [Acivicin, acivicin] | completely abolished; also recorded: Inhibition | Inhibition | Fe^3+ reduction catalyzed by γ-Glutamyltransferase (Ggt1), effect of inhibitor ([1]; listed as acivicin): completely abolished
3 | N[C@@H](CCC(=O)Nc1ccc([N+](=O)[O-])cc1)C(=O)O [GpNA, γ-glutamyl-p-nitroanilide] | – | – | Km (H. capsulatum Ggt1; read-out: apparent optimal Km for GpNA, glutamyl transfer reaction): ~840 µM; Km (H. capsulatum Ggt1; read-out: apparent optimal Km for GpNA, hydrolysis): ~750 µM
4 | serine/borate complex [SBC] | completely abolished; also recorded: Inhibition | completely abolished; also recorded: Inhibition | –
5 | [N-]=[N+]=CC(=O)CC[C@H](N)C(=O)O [DON, 6-diazo-5-oxo-L-norleucine] | completely abolished; also recorded: Inhibition | completely abolished; also recorded: Inhibition | –
6 | [Ga] [gallium] | no inhibitory action; also recorded: No effect | strong inhibitory effect; also recorded: Inhibition | inhibition of GSH-FeR activity [2]: reversibly inhibited
7 | N[C@@H](CS)C(=O)NCC(=O)O [cysteinylglycine] | – | – | ability to reduce iron compared to the activity of 1 mM GSH (1 mM): over 117 fold; iron reduction activity (ferrous iron generated) (0.5-1 mM): generated measurable amounts of ferrous iron; iron reduction by cysteinylglycine alone (pH 5.5): 2.85±0.08 μmol of Fe^2+ min^−1 (mmol CysGly)^−1
